Source: US20170210751A1, “PRMT5 INHIBITORS AND USES THEREOF” (Epizyme, Inc., priority 2014, published 2017)
pEC50: −log10 of the molar value.

Tests used:
[1] = test system: Z-138 cell line; test: Z-138 Proliferation Assay (Cell Titer Glo); type: cell-based; settings: Homo sapiens, 120 h; Z-138 cells, 5 days incubation, ATP (Cell Titer Glo)
Procedure, shortened: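 Z-138 cells in RPMI with 10% FBS exposed 5 days at 37 °C to nine-point 3-fold dilutions, top 20 μM final, 0.2% DMSO, triplicate. ATP-based CellTiter-Glo luminescence; IC50 from 4-parameter fit of normalized curves.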

[2] = test system: Symmetric di-Methyl Arginine in Z-138 cells; test: Z-138 Methylation Assay (In Cell Western for symmetric di-methyl arginine); type: cell-based; settings: Homo sapiens, 96 hours incubation, symmetric di-methyl arginine normalised to DNA content, read-out: ICW EC50
Excerpt: Z-138 suspension cells were purchased from ATCC (American Type Culture Collection, Manassas, Va.). RPMI/Glutamax medium, penicillin-streptomycin, heat inactivated fetal bovine serum, and D-PBS were purchased from Life Technologies, Grand Island, N.Y., USA. Odyssey blocking buffer, 800CW goat anti-rabbit IgG (H+L) antibody, and Licor Odyssey infrared scanner were purchased from Licor Biosciences, Lincoln, Nebr., USA. Symmetric di-methyl arginine antibody was purchased from EMD Millipore, Billerica, Mass., USA. 16% Paraformaldehyde was purchased from Electron Microscopy Sciences, Hatfield, Pa., USA.
Z-138 suspension cells were maintained in growth medium (RPMI 1640 supplemented with 10% v/v heat inactivated fetal bovine serum and 100 units/mL penicillin-streptomycin) and cultured at 37° C. under 5% CO2.
Cell Treatment, In Cell Western (ICW) for detection of Symmetric di-Methyl Arginine and DNA content.
Z-138 cells were seeded in assay medium at a concentration of 50,000 cells per mL to a 384-well cell culture plate with 50 μL per well. Compound (100 nL) from 384 well source plates was added directly to 384 well cell plate. Plates were incubated at 37° C., 5% CO2 for 96 hours. After four days of incubation, 40 μL of cells from incubated plates were added to poly-D-lysine coated 384 well culture plates (BD Biosciences 356697). Plates were incubated at room temperature for 30 minutes then incubated at 37° C., 5% CO2 for 5 hours. After the incubation, 40 μL per well of 8% paraformaldehyde in PBS (16% paraformaldahyde was diluted to 8% in PBS) was added to each plate and incubated for 30 minutes. Plates were transferred to a Biotek 405 plate washer and washed 5 times with 100 μL per well of wash buffer (IX PBS with 0.1% Triton X-100 (v/v)). Next […] well of Odyssey blocking buffer were added to each plate and incubated 1 hour at room temperature. Blocking buffer was removed and 20 μL per well of primary antibody was added (symmetric di-methyl arginine diluted 1:100 in Odyssey buffer with 0.1% Tween 20 (v/v)) and plates were incubated overnight (16 hours) at 4° C. Plates were washed 5 times with 100 μL per well of wash buffer. Next 20 μL per well of secondary antibody was added (1:200 800CW goat anti-rabbit IgG (H+L) antibody, 1:1000 DRAQ5 (Biostatus limited) in Odyssey buffer with 0.1% Tween 20 (v/v)) and incubated for 1 hour at room temperature. The plates were washed 5 times with 100 μL per well wash buffer then 1 time with 100 μL per well of water. Plates were allowed to dry at room temperature then imaged on the Licor Odyssey machine which measures integrated intensity at 700 nm and 800 nm wavelengths. Both 700 and 800 channels were scanned.
First, the ratio for each well was determined by:
Each plate included fourteen control wells of DMSO only treatment (minimum inhibition) as well as fourteen control wells for maximum inhibition treated with 3 μM of a reference compound (Background wells). The average of the ratio values for each control type was calculated and used to determine the percent inhibition for each test well in the plate. Reference compound was serially diluted three-fold in DMSO for a total of nine test concentrations, beginning at 3 μM. Percent inhibition was determined and IC50 curves were generated using triplicate wells per concentration of compound.

| SMILES | pEC50 [1] | pEC50 [2] |
| --- | --- | --- |
| CC(=O)N1CC(Nc2cc(C(=O)NC[C@H](O)CN3CCc4[nH]c(C)nc4C3)ncn2)C1 [Compound 3-47] | < 5.30 | < 6.00 |
| CC(=O)N1CCC(Nc2cc(C(=O)NC[C@H](O)CN3CCc4oc(C)nc4C3)ncn2)CC1 [Compound 4-3, (S)-6-((1-acetylpiperidin-4-yl)amino)-N-(2-hydroxy-3-(2-methyl-6,7-dihydrooxazolo[4,5-c]pyridin-5(4H)-yl)propyl)pyrimidine-4-carboxamide] | < 5.30 | < 6.00 |
| CC(=O)N1CC(Nc2cc(C(=O)NC[C@H](O)CN3CCc4sccc4C3)ncn2)C1 [Compound 1-2, (S)-6-((1-acetylazetidin-3-yl)amino)-N-(3-(6,7-dihydrothieno[3,2-c]pyridin-5(4H)-yl)-2-hydroxypropyl)pyrimidine-4-carboxamide] | 6.00 to 7.00 | > 7.00 |
| CC(=O)N1CCC(Nc2cc(C(=O)NC[C@H](O)CN3CCc4[nH]ncc4C3)ccn2)CC1 [Compound 3-21] | < 5.30 | < 6.00 |
| CC(=O)N1CCC(Nc2cc(C(=O)NC[C@H](O)CN3CCc4c(cnn4C)C3)ccn2)CC1 [Compound 3-52] | < 5.30 | < 6.00 |
| O=C(COc1cccc2cccnc12)NCC(O)CN1CCc2cccnc2C1 (stereo not drawn) [Compound 2-5, N-[2-hydroxy-3-(5,6,7,8-tetrahydro-1,7-naphthyridin-7-yl)propyl]-2-(quinolin-8-yloxy)acetamide] | < 5.30 | < 6.00 |
| CC(=O)N1CC(Nc2cc(C(=O)NC[C@H](O)CN3CCCc4c3cnn4C)ncn2)C1 [Compound 3-46] | < 5.30 | < 6.00 |
| O=C(NC[C@H](O)CN1CCc2ncsc2C1)c1cc(NC2COC2)ncn1 [Compound 1-16, (S)—N-(3-(6,7-dihydrothiazolo[5,4-c]pyridin-5(4H)-yl)-2-hydroxypropyl)-6-(oxetan-3-ylamino)pyrimidine-4-carboxamide] | < 5.30 | < 6.00 |
| CC(=O)N1CCC(Nc2cc(C(=O)NC[C@H](O)CN3CCc4[nH]cnc4C3)ccn2)CC1 [Compound 3-36, (S)-2-((1-acetylpiperidin-4-yl)amino)-N-(3-(6,7-dihydro-1H-imidazo[4,5-c]pyridin-5(4H)-yl)-2-hydroxypropyl)isonicotinamide] | < 5.30 | < 6.00 |
| CC(=O)N1CCC(Nc2cc(C(=O)NC[C@H](O)CN3CCc4scc(C)c4C3)ncn2)CC1 [Compound 1-13, (S)-6-((1-acetylpiperidin-4-yl)amino)-N-(2-hydroxy-3-(3-methyl-6,7-dihydrothieno[3,2-c]pyridin-5(4H)-yl)propyl)pyrimidine-4-carboxamide] | 6.00 to 7.00 | > 7.00 |
| Cn1cc2c(n1)CCN(C[C@@H](O)CNC(=O)c1cc(NC3COC3)ncn1)C2 [Compound 3-27] | < 5.30 | < 6.00 |
| CC(=O)N1CCC(Nc2cc(C(=O)NC[C@H](O)CN3CCc4nc(C)[nH]c4C3)ccn2)CC1 [Compound 3-54] | < 5.30 | < 6.00 |
| CC(=O)N1CC(Nc2cc(C(=O)NC[C@H](O)CN3CCc4[nH]cnc4C3)ncn2)C1 [Compound 3-33, (S)-6-((1-acetylazetidin-3-yl)amino)-N-(3-(6,7-dihydro-1H-imidazo[4,5-c]pyridin-5(4H)-yl)-2-hydroxypropyl)pyrimidine-4-carboxamide] | < 5.30 | < 6.00 |
| CC(=O)N1CCC(Nc2cc(C(=O)NC[C@H](O)CN3CCc4cnccc4C3)ncn2)CC1 [Compound 2-17, (S)-6-((1-acetylpiperidin-4-yl)amino)-N-(3-(3,4-dihydro-2,6-naphthyridin-2(1H)-yl)-2-hydroxypropyl)pyrimidine-4-carboxamide] | < 5.30 | < 6.00 |
| Cn1ncc2c1CCCN2C[C@@H](O)CNC(=O)c1cc(NC2COC2)ncn1 [Compound 3-40] | < 5.30 | < 6.00 |
| CC(=O)N1CC(Nc2cc(C(=O)NC[C@H](O)CN3CCc4nc(N)sc4C3)ncn2)C1 [Compound 1-29] | < 5.30 | < 6.00 |
| O=C(NC[C@H](O)CN1CCc2sccc2C1)c1cc(NC2COC2)ncn1 [Compound 1-1, (S)—N-(3-(6,7-dihydrothieno[3,2-c]pyridin-5(4H)-yl)-2-hydroxypropyl)-6-(oxetan-3-ylamino)pyrimidine-4-carboxamide] | 5.00 to 6.00 | > 7.00 |
| CC(=O)N1CCC(Nc2cc(C(=O)NC[C@H](O)CN3CCc4nc(N)sc4C3)ccn2)CC1 [Compound 1-35] | < 5.30 | < 6.00 |
| CC(=O)N1CCC(Nc2cc(C(=O)NC[C@H](O)CN3CCc4nc(C)sc4C3)ncn2)CC1 [Compound 1-7, (S)-6-((1-acetylpiperidin-4-yl)amino)-N-(2-hydroxy-3-(2-methyl-6,7-dihydrothiazolo[5,4-c]pyridin-5(4H)-yl)propyl)pyrimidine-4-carboxamide] | < 5.30 | < 6.00 |
| CC(=O)N1CCC(Nc2cc(C(=O)NC[C@H](O)CN3CCc4cccnc4C3)ccn2)CC1 [Compound 2-21, (S)-2-((1-acetylpiperidin-4-yl)amino)-N-(3-(5,6-dihydro-1,7-naphthyridin-7(8H)-yl)-2-hydroxypropyl)isonicotinamide] | < 5.30 | 6.00 to 7.00 |
| CC(=O)N1CC(Nc2cc(C(=O)NC[C@H](O)CN3CCc4ncsc4C3)ncn2)C1 [Compound 1-17, (S)-6-((1-acetylazetidin-3-yl)amino)-N-(3-(6,7-dihydrothiazolo[5,4-c]pyridin-5(4H)-yl)-2-hydroxypropyl)pyrimidine-4-carboxamide] | < 5.30 | < 6.00 |
| Nc1nc2c(s1)CCN(C[C@@H](O)CNC(=O)c1cc(NC3COC3)ncn1)C2 [Compound 1-20, (S)—N-(3-(2-amino-6,7-dihydrothiazolo[4,5-c]pyridin-5(4H)-yl)-2-hydroxypropyl)-6-(oxetan-3-ylamino)pyrimidine-4-carboxamide] | < 5.30 | < 6.00 |
| CC(=O)N1CCC(Nc2cc(C(=O)NC[C@H](O)CN3CCc4scnc4C3)ncn2)CC1 [Compound 1-32] | < 5.30 | < 6.00 |
| O=C(COc1cccc2cccnc12)NCC(O)CN1CCc2sccc2C1 (stereo not drawn) [Compound 1-4, N-(2-hydroxy-3-{4H,5H,6H,7H-thieno[3,2-c]pyridin-5-yl}propyl)-2-(quinolin-8-yloxy)acetamide] | 5.00 to 6.00 | > 7.00 |
| Cn1cnc2c1CCN(C[C@@H](O)CNC(=O)c1cc(NC3COC3)ncn1)C2 [Compound 3-28] | < 5.30 | < 6.00 |
| CC(=O)N1CCC(Nc2cc(C(=O)NC[C@H](O)CN3CCc4sccc4C3)ncn2)CC1 [Compound 1-3, (S)-6-((1-acetylpiperidin-4-yl)amino)-N-(3-(6,7-dihydrothieno[3,2-c]pyridin-5(4H)-yl)-2-hydroxypropyl)pyrimidine-4-carboxamide] | 6.00 to 7.00 | > 7.00 |
| O=C(NC[C@H](O)CN1CCc2ncccc2C1)c1cc(NC2COC2)ncn1 [Compound 2-12, (S)—N-(3-(7,8-dihydro-1,6-naphthyridin-6(5H)-yl)-2-hydroxypropyl)-6-(oxetan-3-ylamino)pyrimidine-4-carboxamide] | 5.00 to 6.00 | < 5.30 |
| CC(=O)N1CC(Nc2cc(C(=O)NC[C@H](O)CN3CCc4ncccc4C3)ncn2)C1 [Compound 2-9, (S)-6-((1-acetylazetidin-3-yl)amino)-N-(3-(7,8-dihydro-1,6-naphthyridin-6(5H)-yl)-2-hydroxypropyl)pyrimidine-4-carboxamide] | < 5.30 | 6.00 to 7.00 |
| CC(=O)N1CCC(Nc2cc(C(=O)NC[C@H](O)CN3CCc4scnc4C3)ccn2)CC1 [Compound 1-30] | < 5.30 | 6.00 to 7.00 |
| CC(=O)N1CC(Nc2cc(C(=O)NC[C@H](O)CN3CCc4cccnc4C3)ncn2)C1 [Compound 2-13] | 5.00 to 6.00 | 6.00 to 7.00 |
